# Data published in patent publication US7501430B2 (ArQule, Inc., priority 2006, dated 2009).
# Molecular target: T1, mutant B-RAF (Homo sapiens, UniProt P15056, V600E)
# T1 construct: purchased Upstate (Charlottesville, Va.)
# Assay: RAF biochemical assay (MEK-1 phosphorylation, anti-phospho MEK1/2 detection)
# Details: not given
# Procedure: Materials: The RAF kinases and the anti-phospho MEK1/2 antibody were from Upstate (Charlottesville, Va.). The RAF substrate used was full length N-terminal GST-MEK-1, which was expressed in E. coli and purified in-house by HPLC. All proteins were aliquoted and stored at −80° C.
# Compounds were serially diluted in assay buffer containing 1% DMSO and 20 μL of test compound at a concentration 3-fold more than the final concentration, and were added to a polypropylene V-well reaction plate. Vehicle control wells received buffer only with DMSO at equivalent concentrations to the test wells. […] These reaction plates were incubated at room temperature for 30 minutes. Capture of MEK-1 was initiated by transferring 50 μl of the reaction mixture to a Nunc Maxisorp™ microplate that is designed for non-specific protein capture. After 30 minute capture of MEK-1 at room temperature, this plate was washed with TBST (6×200 μL/well) to fully terminate the reaction. The plate was then blocked for 1 hour by the addition of 100 μl/well of Superblock™ in phosphate buffered saline (PBS) blocking reagent. Plate was again washed with TBST (6 times with 200 μL/well), followed by the addition of 70 μL/well of Upstate anti-phospho MEK 1/2 diluted 1:1000 in Pierce Superblock (PBS). After a 60 minute incubation, this plate was washed with TBST (6 times with 200 μL/well), and 70 μL of the secondary antibody (Pierce Alkaline Phosphatase tagged goat anti-rabbit) prepared at 1:4000 in Superblock, were added. After a 45 minute incubation at room temperature, the wells of the microplate were washed with TBST (6 times with 200 μL/well), and thereafter 100 μl/well of Attophos™ fluorescent alkaline phosphatase substrate was added according to the manufacturer's instructions (JBL Scientific).
# T1 sequence (P15056 whole entry V600E): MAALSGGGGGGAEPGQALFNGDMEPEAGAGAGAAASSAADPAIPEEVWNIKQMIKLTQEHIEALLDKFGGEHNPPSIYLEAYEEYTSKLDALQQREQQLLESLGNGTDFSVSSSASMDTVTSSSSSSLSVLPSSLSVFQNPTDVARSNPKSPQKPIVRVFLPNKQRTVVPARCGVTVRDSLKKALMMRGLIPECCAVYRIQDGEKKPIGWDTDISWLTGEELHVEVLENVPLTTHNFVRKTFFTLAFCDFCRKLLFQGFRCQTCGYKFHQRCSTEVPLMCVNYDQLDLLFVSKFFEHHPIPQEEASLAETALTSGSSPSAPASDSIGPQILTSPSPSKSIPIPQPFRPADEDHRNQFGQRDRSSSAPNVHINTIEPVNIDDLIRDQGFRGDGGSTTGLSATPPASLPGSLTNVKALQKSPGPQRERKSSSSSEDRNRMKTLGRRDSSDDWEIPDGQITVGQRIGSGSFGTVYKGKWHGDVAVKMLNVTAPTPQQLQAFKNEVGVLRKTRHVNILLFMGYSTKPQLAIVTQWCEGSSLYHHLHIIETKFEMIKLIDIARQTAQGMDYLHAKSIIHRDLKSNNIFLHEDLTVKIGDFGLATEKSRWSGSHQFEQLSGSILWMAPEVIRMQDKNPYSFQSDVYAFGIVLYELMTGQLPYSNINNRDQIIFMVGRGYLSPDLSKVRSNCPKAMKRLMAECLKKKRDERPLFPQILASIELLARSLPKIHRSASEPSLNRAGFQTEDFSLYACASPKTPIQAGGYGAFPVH
row,SMILES,IC50
1,"Cc1ccc(S(=O)(=O)N2CCC[C@@H](Nc3nccc(-c4c(-c5ccc(F)cc5)nc5occn45)n3)C2)cc1 [Example 45, 4-[6-(4-fluorophenyl)imi-dazo[2,1-b][1,3]oxazol-5-yl]-N-{(3R)-1-[(4-methylphenyl)sulfonyl]piperidin-3-yl}pyr-imidin-2-amine]",590 nM

# Same assay, conditions: @ 10 uM; read-out: Mutant B-RAF % inhibition
row,SMILES,inhibition at 10 µM
1,"O=C(c1ccco1)N1CCC(Nc2nccc(-c3c(-c4ccc(F)cc4)nc4occn34)n2)CC1 [Example 166, 4-[6-(4-fluorophenyl)imidazo[2,1-b][1,3]oxazol-5-yl]-N-[1-(2-furoyl)piperidin-4-yl]pyrimidin-2-amine]",76%
2,"O=C(Nc1ccc(C(F)(F)F)cc1)N1CCC(Nc2nccc(-c3c(-c4ccc(F)cc4)nc4occn34)n2)CC1 [Example 182, 4-({4-[6-(4-fluorophenyl)imidazo[2,1-b][1,3]oxazol-5-yl]pyrimidin-2-yl}amino)-N-[4-(trifluoromethyl)phenyl]piperidine-1-carboxamide]",45%
3,"O=S(=O)(c1c(F)cccc1F)N1CCC[C@@H](Nc2nccc(-c3c(-c4ccc(F)cc4)nc4occn34)n2)C1 [Example 54, N-{(3R)-1-[(2,6-difluoro-phenyl)sulfonyl]piperidin-3-yl}-4-[6-(4-fluorophenyl)imidazo[2,1-b][1,3]oxazol-5-yl]pyrimidin-2-amine]",47%
4,"Cc1nc(S(=O)(=O)N2CCC[C@@H](Nc3nccc(-c4c(-c5ccc(F)cc5)nc5occn45)n3)C2)cn1C [Example 66, N-{(3R)-1-[(1,2-dimethyl-1H-imidazol-4-yl)sulfonyl]piper-idin-3-yl}-4-[6-(4-fluorophenyl)imidazo[2,1-b][1,3]oxazol-5-yl]pyrimidin-2-amine]",70%
5,"O=C(c1ccncc1)N1CCC(Nc2nccc(-c3c(-c4ccc(F)cc4)nc4occn34)n2)CC1 [Example 165, 4-[6-(4-fluorophenyl)imidazo[2,1-b][1,3]oxazol-5-yl]-N-(1-isonicotinoylpiperidin-4-yl)pyrimidin-2-amine]",33%
6,"COc1cccc(-c2nc3sccn3c2-c2ccnc(NC3CCN(C(=O)Nc4ccc(N(C)C)cc4)CC3)n2)c1 [Example 216, N-[4-(dimethylamino)phenyl]-4-({4-[6-(3-methoxyphenyl)imidazo[2,1-b][1,3]thiazol-5-yl]pyrimidin-2-yl}amino)piperidine-1-carboxamide]",58%
7,"COc1ccc(Cl)cc1S(=O)(=O)N1CCC(Nc2nccc(-c3c(-c4ccc(F)cc4)nc4occn34)n2)CC1 [Example 227, N-{1-[(5-chloro-2-methoxyphenyl)sulfonyl]piper-idin-4-yl}-4-[6-(4-fluorophenyl)imidazo[2,1-b][1,3]oxazol-5-yl]pyrimidin-2-amine]",27%
8,"O=C(Nc1ccccc1F)N1CCC[C@@H](Nc2nccc(-c3c(-c4ccc(F)cc4)nc4occn34)n2)C1 [Example 74, (3R)-N-(2-fluorophenyl)-3-({4-[6-(4-fluorophenyl)imidazo[2,1-b][1,3]oxazol-5-yl]pyrimidin-2-yl}amino)piperidine-1-carboxamide]",35%
9,"COc1cccc(OC)c1C(=O)N1CCC(Nc2nccc(-c3c(-c4ccc(F)cc4)nc4occn34)n2)CC1 [Example 210, N-[1-(2,6-dimethoxybenzoyl)piperidin-4-yl]-4-[6-(4-fluorophenyl)imidazo[2,1-b][1,3]oxazol-5-yl]pyrimidin-2-amine]",38%
10,"Cc1ccnc(SCC(=O)N2CCC(Nc3nccc(-c4c(-c5ccc(F)cc5)nc5occn45)n3)CC2)n1 [Example 215, 4-[6-(4-fluorophenyl)imidazo[2,1-b][1,3]oxazol-5-yl]-N-(1-{[(4-methylpyrimidin-2-yl)thio]acetyl}piperidin-4-yl)pyrimidin-2-amine]",40%

# Same assay, conditions: read-out: Mutant B-RAF IC50
row,SMILES,IC50
1,"Fc1ccc(-c2nc3sccn3c2-c2ccnc(NC3CNC3)n2)cc1 [Example 287, N-azetidin-3-yl-4-[6-(4-fluorophenyl)imidazo[2,1-b][1,3]thiazol-5-yl]pyrimidin-2-amine]",2490 nM
2,"O=S(=O)(c1ccc(F)cc1)N1CCC(Nc2nccc(-c3c(-c4ccc(F)cc4)nc4occn34)n2)CC1 [Example 157, 4-[6-(4-fluorophenyl)imidazo[2,1-b][1,3]oxazol-5-yl]-N-{1-[(4-fluorophenyl)sulfonyl]piperidin-4-yl}pyrimidin-2-amine]",675 nM
3,"O=S(=O)(c1ccc(F)cc1)N1CCC[C@@H](Nc2nccc(-c3c(-c4ccc(F)c(F)c4)nc4sccn34)n2)C1 [Example 85, 4-[6-(3,4-difluorophenyl)imidazo[2,1-b][1,3]thiazol-5-yl]-N-{(3R)-1-[(4-fluorophenyl)sulfonyl]piperidin-3-yl}pyrimidin-2-amine]",58 nM
4,"CC(C)NC(=O)N1CCC[C@@H](Nc2nccc(-c3c(-c4cccc(O)c4)nc4sccn34)n2)C1 [Example 334, (3R)-3-({4-[6-(3-hydroxyphenyl)imidazo[2,1-b][1,3]thiazol-5-yl]pyrimidin-2-yl}amino)-N-isopropylpiperidine-1-carboxamide]",650 nM
5,"O=S(=O)(c1cc(C(F)(F)F)cc(C(F)(F)F)c1)N1CCC(Nc2nccc(-c3c(-c4ccc(F)cc4)nc4occn34)n2)CC1 [Example 207, N-(1-{[3,5-bis(trifluoro-methyl)phenyl]sulfonyl}piperidin-4-yl)-4-[6-(4-fluorophenyl)imidazo[2,1-b][1,3]oxazol-5-yl]pyrimidin-2-amine]",27 nM
6,"N#Cc1ccc(S(=O)(=O)N2CCC(Nc3nccc(-c4c(-c5cccc(O)c5)nc5occn45)n3)CC2)cc1 [Example 317, 4-{[4-({4-[6-(3-hydroxyphenyl)imidazo[2,1-b][1,3]oxazol-5-yl]pyrimidin-2-yl}amino)piperidin-1-yl]sulfonyl}benzonitrile]",22 nM
7,"N#Cc1cccc(-c2nc3sccn3c2-c2ccnc(NC3CCN(S(=O)(=O)c4ccc(Cl)cc4)CC3)n2)c1 [Example 269, 3-{5-[2-({1-[(4-chlorophenyl)sulfonyl]piperidin-4-yl)amino)pyrimidin-4-yl]imidazo[2,1-b][1,3]thiazol-6-yl}benzonitrile]",1630 nM
8,"O=S(=O)(c1ccc(Cl)cc1)N1CC[C@@H](Nc2nccc(-c3c(-c4cccc(O)c4)nc4sccn34)n2)C1 [Example 283, 3-{5-[2-({(3R)-1-[(4-chlorophenyl)sulfonyl]pyrro-lidin-3-yl}amino)pyrimidin-4-yl]imidazo[2,1-b][1,3]thiazol-6-yl}phenol]",1600 nM
9,"CCOc1ccc(NC(=O)N2CCC[C@@H](Nc3nccc(-c4c(-c5cccc(OC)c5)nc5sccn45)n3)C2)cc1 [Example 329, (3R)-N-(4-ethoxyphenyl)-3-({4-[6-(3-methoxyphenyl)imidazo[2,1-b][1,3]thiazol-5-yl]pyri-midin-2-yl}amino)piperidine-1-carboxamide]",4000 nM
10,"Fc1ccc(-c2nc3sccn3c2-c2ccnc(N[C@@H]3CCCNC3)n2)cc1F [Example 78, 4-[6-(3,4-difluorophenyl)imidazo[2,1-b][1,3]thiazol-5-yl]-N-[(3R)-piperidin-3-yl]pyrimidin-2-amine]",1260 nM
11,"COc1cccc(-c2nc3occn3c2-c2ccnc(NC3CCN(C(=O)NS(=O)(=O)c4ccc(Cl)cc4)CC3)n2)c1 [Example 324, N-[(4-chlorophenyl)sulfonyl]-4-({4-[6-(3-methoxyphenyl)imidazo[2,1-b][1,3]oxazol-5-yl]pyrimidin-2-yl}amino)piperidine-1-carboxamide]",4000 nM
12,"Cc1ccc(NC(=O)N2CCC(Nc3nccc(-c4c(-c5ccc(F)cc5)nc5occn45)n3)CC2)cc1 [Example 172, 4-({4-[6-(4-fluorophenyl)imidazo[2,1-b][1,3]oxazol-5-yl]pyrimidin-2-yl}amino)-N-(4-methylphenyl)piperidine-1-carboxamide]",1980 nM
13,"OC[C@H](O)CN1CCC[C@@H](Nc2nccc(-c3c(-c4cccc(O)c4)nc4sccn34)n2)C1 [Example 148, (2R)-3-[(3R)-3-({4-[6-(3-hydroxyphenyl)imidazo[2,1-b][1,3]thiazol-5-yl]pyrimidin-2-yl}amino)piperidin-1-yl]propane-1,2-diol]",> 3000 nM
14,"O=S(=O)(c1ccc(F)c(Cl)c1)N1CCC(Nc2nccc(-c3c(-c4ccc(F)cc4)nc4occn34)n2)CC1 [Example 204, N-{1-[(3-chloro-4-fluorophenyl)sulfonyl]piperidin-4-yl}-4-[-6-(4-fluorophenyl)imidazo[2,1-b][1,3]oxazol-5-yl]pyrimidin-2-amine]",541 nM
15,"N#Cc1cccc(-c2nc3sccn3c2-c2ccnc(N[C@@H]3CCCN(S(=O)(=O)c4ccc(Cl)cc4)C3)n2)c1 [Example 126, 3-{5-[2-({(3R)-1-[(4-chlorophenyl)sulfonyl]piperidin-3-yl}amino)pyrimidin-4-yl]imidazo[2,1-b][1,3]thiazol-6-yl}benzonitrile]",710 nM
16,"COc1cccc(-c2nc3sccn3c2-c2ccnc(N[C@@H]3CCCNC3)n2)c1 [Example 77, 4-[6-(3-methoxyphenyl)imidazo[2,1-b][1,3]thiazol-5-yl]-N-[(3R)-piperidin-3-yl]pyrimidin-2-amine]",1810 nM
